{
  "source": "patent US12059429B2",
  "about": "“Hornerin: a novel non-VEGF mediated angiogenic protein expressed in both human and mouse angiogenic endothelial cells and human pancreatic cancer cells” (University of Virginia Patent Foundation, priority 2018, dated 2024)",
  "key": {"[1]": {"tested_on": "TCM-treated HUVECs", "test": "Phage-based ELISA on treated HUVECs with two-way ANOVA", "assay_type": "binding, human", "method": "HUVEC were plated in MaxiSorp 96-well plates (NUNC, Rochester, NY, USA) and cultured for 24 hours, at which time the cells were treated with media containing VEGF (VEGFCM) at B-max concentration (Igarashi et al., 2003) or TCM for an additional 24 h. ELISA was initiated by adding 1010 isolated phage to each well for a 1 hour incubation. After three washes with DPBS+0.1% Tween-20 (DPBST), the cells were incubated with horse radish peroxidase (HRP)-tagged anti-M13 antibody (GE Healthcare, Little Chalfont, UK, 27-9421-01; (1:3000)) for 30 min. The plates were washed three additional times (DBPST) then developed with 200 μL 3,3′,5,5′-Tetramethylbenzidine (Sigma) for 10 minutes. The A650 was measured on a microplate reader (Molecular Devices, Sunnyvale, CA, USA).\nAbsorbance values were corrected by comparison to unmodified control KE phage. […]\nAs VEGF is highly abundant in the pancreatic tumor milieu, clones were further segregated based on their ability to bind to VEGF-treated HUVECs vs. tumor conditioned media (TCM)-treated HUVECs. […] Enzyme-linked immunoabsorbent assay (ELISA) results were analyzed by two-way analysis of variance (ANOVA) to find clones that consistently bound to HUVECs treated with TCM, but not vehicle control (VC) or VEGF-supplemented control media (VEGFCM; FIGS. 2A and 2B). […]"}, "[2]": {"biological_target": "T1, hornerin (Homo sapiens, UniProt Q86YZ3)", "T1 construct": "A unique band in the PTEM 9 lane that was not present in the control sample corresponded to the predicted molecular weight of hornerin; endogenous in cells", "T1 sequence (Q86YZ3 whole entry)": "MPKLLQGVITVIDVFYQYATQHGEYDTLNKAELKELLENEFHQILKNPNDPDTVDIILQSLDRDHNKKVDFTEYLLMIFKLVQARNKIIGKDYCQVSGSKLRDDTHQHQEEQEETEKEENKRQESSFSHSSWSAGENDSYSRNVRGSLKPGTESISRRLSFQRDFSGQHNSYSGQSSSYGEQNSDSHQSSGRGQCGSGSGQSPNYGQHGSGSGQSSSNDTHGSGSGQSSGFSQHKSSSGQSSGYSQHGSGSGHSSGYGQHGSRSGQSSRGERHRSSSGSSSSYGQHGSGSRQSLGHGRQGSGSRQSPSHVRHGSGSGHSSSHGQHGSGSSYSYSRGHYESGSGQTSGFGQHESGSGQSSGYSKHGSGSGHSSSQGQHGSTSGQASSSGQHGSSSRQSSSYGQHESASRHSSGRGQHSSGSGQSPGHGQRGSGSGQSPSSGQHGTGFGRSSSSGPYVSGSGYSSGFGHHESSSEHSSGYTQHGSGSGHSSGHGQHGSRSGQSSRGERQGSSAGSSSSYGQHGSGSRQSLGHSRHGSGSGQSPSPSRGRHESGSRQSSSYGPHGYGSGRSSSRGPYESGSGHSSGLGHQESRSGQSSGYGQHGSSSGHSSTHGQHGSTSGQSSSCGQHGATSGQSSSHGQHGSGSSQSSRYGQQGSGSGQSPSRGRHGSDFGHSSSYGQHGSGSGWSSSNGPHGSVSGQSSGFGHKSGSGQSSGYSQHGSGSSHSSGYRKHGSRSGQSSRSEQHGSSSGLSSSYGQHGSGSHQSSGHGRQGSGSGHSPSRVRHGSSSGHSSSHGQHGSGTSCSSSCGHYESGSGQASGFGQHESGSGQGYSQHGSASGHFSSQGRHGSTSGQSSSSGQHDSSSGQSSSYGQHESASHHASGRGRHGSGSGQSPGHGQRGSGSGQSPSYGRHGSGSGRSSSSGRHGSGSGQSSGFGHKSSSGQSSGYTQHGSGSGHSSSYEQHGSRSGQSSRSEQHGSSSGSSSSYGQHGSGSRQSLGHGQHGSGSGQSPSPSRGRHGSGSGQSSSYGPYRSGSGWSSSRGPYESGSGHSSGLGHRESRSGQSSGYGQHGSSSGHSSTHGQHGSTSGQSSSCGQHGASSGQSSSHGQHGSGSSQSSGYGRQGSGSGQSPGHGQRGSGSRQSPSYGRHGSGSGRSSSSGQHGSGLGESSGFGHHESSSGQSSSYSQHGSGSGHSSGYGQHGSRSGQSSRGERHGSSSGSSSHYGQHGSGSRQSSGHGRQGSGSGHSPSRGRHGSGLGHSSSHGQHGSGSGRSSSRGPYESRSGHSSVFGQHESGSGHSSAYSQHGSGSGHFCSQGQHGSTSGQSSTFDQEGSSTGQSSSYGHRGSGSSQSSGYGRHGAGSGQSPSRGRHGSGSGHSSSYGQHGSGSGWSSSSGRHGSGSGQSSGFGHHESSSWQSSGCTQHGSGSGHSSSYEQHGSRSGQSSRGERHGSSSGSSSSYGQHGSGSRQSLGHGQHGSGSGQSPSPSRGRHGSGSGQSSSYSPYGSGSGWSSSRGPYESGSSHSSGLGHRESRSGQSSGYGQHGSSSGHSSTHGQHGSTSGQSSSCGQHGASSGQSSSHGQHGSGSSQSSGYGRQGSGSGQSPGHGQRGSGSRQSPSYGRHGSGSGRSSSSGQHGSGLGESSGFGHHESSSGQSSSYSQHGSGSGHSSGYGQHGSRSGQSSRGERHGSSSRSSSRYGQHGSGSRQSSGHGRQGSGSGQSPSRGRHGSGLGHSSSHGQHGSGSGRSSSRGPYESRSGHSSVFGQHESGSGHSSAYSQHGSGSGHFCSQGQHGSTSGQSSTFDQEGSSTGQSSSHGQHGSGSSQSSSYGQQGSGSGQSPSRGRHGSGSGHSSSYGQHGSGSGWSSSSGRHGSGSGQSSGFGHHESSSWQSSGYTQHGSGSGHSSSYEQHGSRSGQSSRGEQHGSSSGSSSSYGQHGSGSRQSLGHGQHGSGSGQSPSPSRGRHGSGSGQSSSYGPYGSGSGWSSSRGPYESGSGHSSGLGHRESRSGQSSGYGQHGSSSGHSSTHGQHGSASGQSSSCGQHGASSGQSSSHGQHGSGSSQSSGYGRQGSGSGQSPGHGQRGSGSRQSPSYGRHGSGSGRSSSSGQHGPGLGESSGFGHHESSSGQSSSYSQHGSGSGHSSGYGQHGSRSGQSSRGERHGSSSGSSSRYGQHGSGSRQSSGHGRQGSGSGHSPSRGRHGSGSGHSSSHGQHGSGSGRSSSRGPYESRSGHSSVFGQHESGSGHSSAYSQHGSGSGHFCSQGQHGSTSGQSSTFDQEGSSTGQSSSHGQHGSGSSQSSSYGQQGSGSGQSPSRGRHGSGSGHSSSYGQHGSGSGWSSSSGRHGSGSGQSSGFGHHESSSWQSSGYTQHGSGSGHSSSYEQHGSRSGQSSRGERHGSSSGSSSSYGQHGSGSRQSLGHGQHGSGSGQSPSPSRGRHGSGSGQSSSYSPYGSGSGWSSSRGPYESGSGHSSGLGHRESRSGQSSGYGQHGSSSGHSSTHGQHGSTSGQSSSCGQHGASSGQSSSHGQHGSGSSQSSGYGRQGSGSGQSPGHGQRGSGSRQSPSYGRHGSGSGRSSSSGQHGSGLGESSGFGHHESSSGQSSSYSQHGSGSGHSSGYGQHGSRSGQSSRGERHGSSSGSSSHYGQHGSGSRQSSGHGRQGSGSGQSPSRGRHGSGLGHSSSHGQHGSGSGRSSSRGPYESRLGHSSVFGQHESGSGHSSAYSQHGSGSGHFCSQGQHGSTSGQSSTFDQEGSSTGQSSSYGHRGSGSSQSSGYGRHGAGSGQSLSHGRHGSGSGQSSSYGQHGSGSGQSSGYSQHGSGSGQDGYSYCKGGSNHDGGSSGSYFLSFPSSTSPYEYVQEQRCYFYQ", "test": "Phage display-based functional proteomics (pulldown, MS/MS, anti-hornerin immunoblot)", "assay_type": "binding", "settings": "tandem mass spectroscopy of pulldown lysates, confirmed by immunoblot", "method": "The gel piece was transferred to a siliconized tube and washed and destained in 200 μL 50% methanol overnight. The gel pieces were dehydrated in acetonitrile, rehydrated in 30 μL of 10 mM dithiolthreitol in 0.1M ammonium bicarbonate, and reduced at room temperature for 0.5 hours. The DTT solution was removed and the sample alkylated in 30 μL 50 mM iodoacetamide in 0.1M ammonium bicarbonate at room temperature for 0.5 hours. The reagent was removed and the gel pieces dehydrated in 100 μL acetonitrile. The acetonitrile was removed and the gel pieces rehydrated in 100 μL 0.1M ammonium bicarbonate. The pieces were dehydrated in 100 μL acetonitrile, the acetonitrile removed and the pieces completely dried by vacuum centrifugation. […]\nThe LC-MS system consisted of a Thermo Electron Velos Orbitrap ETD mass spectrometer system with a Protana nanospray ion source interfaced to a self-packed 8 cm×75 μm id Phenomenex Jupiter 10 μm C18 reversed-phase capillary column. […] The digest was analyzed using the double play capability of the instrument acquiring full scan mass spectra (Orbitrap, 60 K resolution) to determine peptide molecular weights followed by product ion spectra (ion trap) to determine amino-acid sequence in sequential scans. […]\nThe data were analyzed by database searching using the Sequest search algorithm within Proteome Discoverer (v1.2) against IPI Human (v3.78, 86,702 entries). […]"}, "[3]": {"tested_on": "hornerin", "test": "Immunoblot of hornerin in human keratinocytes treated with EGF", "assay_type": "cell-based", "settings": "48 hours"}, "[4]": {"tested_on": "hornerin", "test": "Immunoblot of hornerin in HUVECs treated with growth factors", "assay_type": "cell-based, human", "settings": "24 hours treatment; growth factors at published B-max concentrations, EGF at increasing concentrations", "method": "HUVECs were cultured in 10 cm dishes for 24 hours prior to a change to media containing VEGF (at B-max concentration), TCM, or VC. After 24 hours treatment, the cells were washed with DPBST two times and lysed with radioimmunoprecipitation assay (RIPA) buffer (Thermo Scientific). Lysate protein concentrations were measured by the bicinchoninic acid assay (Pierce, Waltham, MA, USA) and equivalent amounts of protein were loaded into precast 4-15% tris-glycine eXtended (TGX) polyacrylamide gels (Bio-Rad, Hercules, CA, USA). The proteins were resolved by electrophoresis and transferred to nitrocellulose membranes using the iBlot system (Invitrogen, Carlsbad, CA, USA). The membranes were then washed in Tris-buffered saline+1% Tween-20 (TBST), blocked for 30 minutes in TBST+2% milk solution, and incubated overnight at 4° C. with primary antibodies anti-hornerin (Abcam, Cambridge, UK, ab78909; (1:1000)) and anti-HSP90 (Cell Signaling Technology, Danvers, MA, USA, 4877; (1:1000)). The following day the membranes were washed and subsequently incubated with the secondary antibodies anti-goat HRP (R&D Systems, Minneapolis, MN, USA, HAF109; 1:5000) and anti-rabbit HRP (GE Healthcare, NA934V; 1:5000) for 45 minutes at RT. […]\nMajor constituents of TCM were determined using a Human Angiogenesis Antibody Array (Affymetrix, Santa Clara, CA, USA) per manufacturer's instructions. […]"}, "[5]": {"tested_on": "hornerin", "test": "Immunoblot of hornerin in L3.6pl cells treated with EGF", "assay_type": "cell-based, human", "settings": "EGF 1, 10 or 100 ng/mL, 48 hours"}},
  "data": [
    {"substance": "SLLNRMP (listed as Homo sapiens) [PTEM 9]", "values": [
      {"measurement": "specificity (fold over vehicle control) among clones binding selectively to TCM-treated HUVECs", "setting": "[1]", "result": "highest average specificity"},
      {"measurement": "binding partner identified", "setting": "[2]", "result": "hornerin as the candidate protein"}
    ]},
    {"substance": "EGF: recombinant human EGF (PeproTech)", "values": [
      {"measurement": "hornerin expression in keratinocytes", "setting": "[3]", "result": "more modest response"},
      {"measurement": "hornerin expression in HUVECs", "setting": "[4]", "result": "increased"},
      {"measurement": "hornerin expression in L3.6pl cells", "setting": "[5]", "result": "concentration-dependent increase in expression"}
    ]}
  ]
}
